What was measured:
[1] = Solubility Test 2: solubility to chloroform; assay type: physicochemical; details: room temperature, visually checked
Method: To confirm solubility to solvent, the solubility of a test compound to chloroform was measured. A test compound was added to chloroform little by little at room temperature and stirred. The solubility was determined by visually checking whether it was dissolved or not. When the test compound remained undissolved, the total amount by mass of the test compound added immediately before the moment was calculated and the solubility to chloroform was expressed in terms of % by mass.
After a chloroform suspension solution of the compound represented by the formula (101) above was prepared, insoluble solid substances were filtered off to obtain a filtrate. The solubility of the compound represented by the formula (101) above to the filtrate was 0.02% by mass.

[2] = Solubility Test 1: solubility to toluene; assay type: physicochemical; details: for Solubility (% by mass): to toluene, room temperature, visually checked
Method: To confirm solubility to solvent, which is one of the important characteristics of a semiconductor manufactured by coating, the solubility of a test compound to toluene was measured. A test compound was added to toluene little by little at room temperature and stirred. The solubility was determined by visually checking whether it was dissolved or not. When the test compound remained undissolved, the total amount by mass of the test compound added immediately before the moment was calculated and the solubility to toluene was expressed in terms of % by mass.
The “Compound No.” of Table 2 is the same as defined in Table 1. Furthermore, in Comparative Example 1, the solubility of Compound 16 of Example 15 disclosed in Patent Document 3 to toluene was calculated by the same test method as above. The structural formula of the compound used in Comparative Example 1 is shown in the formula (101) below.

SMILES | Solubility (% by mass) [1] [% by mass] | Solubility (% by mass) [2] | Solubility (% by mass) ([2]; listed as formula (101)) | solubility to toluene relative to the aryl derivative of Comparative Example 1 [2]
c1ccc(-c2ccc3c(c2)sc2c4ccc(-c5ccccc5)cc4sc32)cc1 [Comparative Example 1, reference compound] | 0.02 | 0.01 or less % by mass | not more than 0.01 % by mass | 
CCCCCCCCc1ccc2c(c1)sc1c3ccc(CCCCCCCC)cc3sc21 [Compound No. 16, 2,7-Dioctyl[1]benzothieno[3,2-b][1]benzothiophene] | 5.4 | 1.5 % by mass |  | at least 50 fold
CCCCCCCCCCCCc1ccc2c(c1)sc1c3ccc(CCCCCCCCCCCC)cc3sc21 [Compound No. 20, 2,7-Didodecyl[1]benzothieno[3,2-b][1]benzothiophene] | 0.6 | 0.2 % by mass |  | ≥ 20 fold

From patent US8124964B2, “Field-effect transistor” (Nippon Kayaku Kabushiki Kaisha, priority 2006, dated 2012)
